Test [1] has as its target T1, GmPOPB-S577A (inactive mutant) (Galerina marginata, UniProt H2E7Q8, S577A).
T1 construct: His-tag (TEV-cleavable) (cleaved yes); made in house; host or cells: E. coli BL21(DE3)
T1 sequence (H2E7Q8 1-730 S577A): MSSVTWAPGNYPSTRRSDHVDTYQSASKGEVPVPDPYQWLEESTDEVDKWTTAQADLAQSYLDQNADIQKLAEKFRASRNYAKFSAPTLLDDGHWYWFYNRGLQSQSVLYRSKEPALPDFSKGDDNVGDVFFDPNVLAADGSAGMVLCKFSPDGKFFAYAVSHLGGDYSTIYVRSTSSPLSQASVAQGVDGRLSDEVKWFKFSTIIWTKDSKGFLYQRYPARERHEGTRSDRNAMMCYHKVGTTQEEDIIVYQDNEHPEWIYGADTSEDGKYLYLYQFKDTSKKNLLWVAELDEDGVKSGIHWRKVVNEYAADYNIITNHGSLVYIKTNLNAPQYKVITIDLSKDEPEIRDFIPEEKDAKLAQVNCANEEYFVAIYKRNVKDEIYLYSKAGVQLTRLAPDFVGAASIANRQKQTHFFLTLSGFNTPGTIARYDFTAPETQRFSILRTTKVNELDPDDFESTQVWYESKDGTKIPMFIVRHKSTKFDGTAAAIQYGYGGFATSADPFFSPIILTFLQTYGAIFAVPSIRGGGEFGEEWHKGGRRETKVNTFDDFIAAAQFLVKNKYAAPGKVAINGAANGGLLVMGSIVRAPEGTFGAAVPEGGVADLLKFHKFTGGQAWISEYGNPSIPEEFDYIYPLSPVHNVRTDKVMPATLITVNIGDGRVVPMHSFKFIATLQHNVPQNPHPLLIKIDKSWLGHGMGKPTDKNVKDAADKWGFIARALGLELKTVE
As to the kind of experiment: Isothermal titration calorimetry, peptide binding to inactive mutant GmPOPB_S577A. Particulars: ITC, 20 °C.

Test [2] addresses T2, GmPOPB (Galerina marginata, UniProt H2E7Q8). Particulars: macrocyclization; 50 mM Tris pH 8.0, 50 mM NaCl, 10 mM DTT, room temperature; GmPOPB 1 μM for 13mer and 14mer, 50 nM for C6S, 20 nM others; duplicates, fit ± SEM.
Protocol: Comparison between distinct substrates was performed in 50 mM Tris pH 8.0, 50 mM NaCl, 10 mM DTT with varying concentrations of substrates at room temperature. All reactions were performed in duplicates. Reactions were started by adding GmPOPB (50 nM for GmAMA1_C6S, 1 μM for the 13mer and 14mer, and 20 nM for other substrates) to the assay mixture containing buffer and peptide. Reactions were quenched at several time points by adding 50 μL reaction mixture to 20 μL 6% TFA. Reactants were separated from products for quantification by injecting 50 μL of each quenched time point mix onto a ZORBAX SB-C18, 5 µm, 9.4 × 50 mm (Agilent) column connected to an Agilent LC-MS (G6130B Single Quad, Agilent Technologies). Reactants were separated from products using a gradient from H2O containing 0.1% TFA or 0.1% formic acid and 5% acetonitrile to 50% acetonitrile, at 1.5 ml/min for 8 min. […] The sum of product+substrate was assumed equal to the total initial amount of substrate, product converted from % to concentration. This value was divided by concentration of enzyme present to yield v/E t (min^−1). […] For progress curves with the 35mer substrate, measurements were triplicate and quantification relied on ion counts from mass spectrometry. […] Authentic cyclic peptide was quantified by UV absorbance. […] Kinetic data were fitted to a Michaelis–Menten equation using GraphPad Prism, and values reported are average and standard error of the mean.
The target of test [3] is T2, GmPOPB. The test is described as follows: Peptide products formed after 1 h and 16 h reaction of truncated substrates with GmPOPB. It is filed as biochemical. Also noted: His-tag (TEV-cleavable) (cleaved yes); made in house; host or cells: E. coli BL21(DE3). Particulars: 1 μM GmPOPB, 200 μM peptide substrate, performed twice. The method, then:
The peptides are colored as Fig. 1c with N-terminus at top. Error bars are standard error of the mean from the average of at least two independent measurements (Supplementary Table 3). c Michaelis–Menten curves show both the 13mer and 14mer are substrates for the enzyme. Fitted values for K d, K m, and k cat are shown in Supplementary Tables 2 and 3. Error bars are standard error of the mean from duplicate measurements. d Cyclic peptide produced after 1 h reaction with 1 μM GmPOPB and 200 μM of various peptide substrates. e Peptide produced after 16 h of reaction with 1 μM GmPOPB and 200 μM of various peptide substrates. Peptide sequences are colored as Fig. 1b and detailed in Supplementary Fig. 1
Comparison between distinct substrates was performed in 50 mM Tris pH 8.0, 50 mM NaCl, 10 mM DTT with varying concentrations of substrates at room temperature. All reactions were performed in duplicates. […] Reactants were separated from products for quantification by injecting 50 μL of each quenched time point mix onto a ZORBAX SB-C18, 5 µm, 9.4 × 50 mm (Agilent) column connected to an Agilent LC-MS (G6130B Single Quad, Agilent Technologies). […] For progress curves with the 35mer substrate, measurements were triplicate and quantification relied on ion counts from mass spectrometry. […] Authentic cyclic peptide was quantified by UV absorbance. […]

For test [4], the target named is T3, GmPOPB-S577A (Galerina marginata, UniProt H2E7Q8, S577A).
T3 sequence: T1 sequence (H2E7Q8 1-730 S577A)
The test is described as follows: crystal structure. Particulars: both partners purified.

For another test, the target named is T4, GmPOPB-D661A (Galerina marginata, UniProt H2E7Q8 1-730, D661A).
T4 sequence: T1 sequence (H2E7Q8 1-730 S577A) with A577S, D661A
The test is described as follows: crystal structure. Particulars: both partners purified.

In test [5] the target is T3, GmPOPB-S577A. The test is described as follows: ITC. Particulars: both partners purified.
For the next test, the target named is T5, GmPOPB-H698A (Galerina marginata, UniProt H2E7Q8 1-730, H698A).
T5 sequence: T1 sequence (H2E7Q8 1-730 S577A) with A577S, H698A
As to the kind of experiment: crystal structure; co-crystallization of 100 mg/ml protein with two-fold molar excess of peptide, sitting drop, 20 °C, 12.5 mM hexammine cobalt chloride as additive. Particulars: both partners purified.

We go through 3 molecules from paper PMC5648786, “Characterization of a dual function macrocyclase enables design and use of efficient macrocyclization substrates” (Nature Communications, 2017).

Residue numbers refer to the chain shown, from its start. No end group written: not given here.

By Kd is commonly meant the constant that tells how readily two partners part at equilibrium. A high value points to lower affinity. What is called kcat is the number of substrate molecules converted per active site and unit of time at saturation. Turning to IWGIGCNPWTAEHV [14mer], in test [1] (GmPOPB_S577A, average ± SEM), the “-TΔS” value is -5.8 ± 0.2 kcal/mol, the ΔG was -6.7 ± 0.1 kcal/mol and the ΔH was -0.9 ± 0.2 kcal/mol. This molecule also gave a Kd in test [1] (peptide titrated into GmPOPB_S577A, 50 mM Tris pH 8.0, 50 mM NaCl, 10 mM DTT, single-site model, n fixed at 1.0, average ± SEM of at least 2 measurements) of 9.5 ± 1.1 µM. For the same molecule, on GmPOPB [2], the kcat was found to be 0.00967 ± 0.00167 s⁻¹. Also, the “Linear product (hydrolysis instead of macrocyclization) after 16 h of reaction” value at GmPOPB [3] was “less linear product”.

B1: 25mer substrate (core, linker and recognition tail) (peptide)
peptide: IWGIGCNPWTAEHVDQTLASGNDIC
notes: also called 25mer peptide
On to B1, for which the binding result with GmPOPB-S577A [4] and with GmPOPB-D661A was “binds” throughout.

B2: 35mer substrate (amatoxin peptide precursor, full-length substrate) (peptide)
peptide: MFDTNATRLPIWGIGCNPWTAEHVDQTLASGNDIC
notes: also called 35mer peptide
As to B2, the Kd with GmPOPB-S577A [5] stood at 0.12 µM. Further, the binding result in the test with GmPOPB-H698A is recorded as “binds”.
